Earlier results as cited in US7745427B2, “CGRP receptor antagonists” (Merck Sharp & Dohme Corp., priority 2004, dated 2010).
No end group written: not given here.

Assays:
[1] = test system: acute attacks of migraine; conditions: clinical trials; Olesen et al. 2004
facial blood flow [2] = conditions: marmoset; Doods et al. 2000
middle meningeal artery = conditions: rats, prior administration; Williamson et al. 1997
facial blood flow [3] = conditions: rat; Escott et al. 1995

Molecule	treating acute attacks of migraine [1]	increase in facial blood flow (facial blood flow [2])	increase in diameter of the middle meningeal artery (middle meningeal artery)	increased facial blood flow (facial blood flow [3])
NCCCC[C@H](NC(=O)[C@@H](Cc1cc(Br)c(O)c(Br)c1)NC(=O)N1CCC(N2Cc3ccccc3NC2=O)CC1)C(=O)N1CCN(c2ccncc2)CC1 [BIBN4096BS]	effective	blocked		
CGRP(8-37): "a peptide CGRP antagonist" (VTHRLAGLLSRSGGVVKNNFVPTNVGSKAF; ends and bridges not checked; UniProt P06881 90-119, looked up, fragment)			blocked	inhibited
